# From publication PMC5999115, “Anti-tumor activity of phenoxybenzamine and its inhibition of histone deacetylases” (PLoS ONE, 2018)
# Columns and labels:
# LXFS DMS 273 = assay: Oncotest CellTiter-Blue cell viability assay, 72 hours; type: cell-based, human
# Description: (§1) Further studies with varying drug concentrations on selected human cell lines, in most cases those studied in the NCI60 screen, were conducted by Oncotest GmbH laboratories, Freiburg, Germany; Oncotest is a division of Charles River Laboratories. The dissolution procedure for PBZ and the cell culture […] was 72 hours; anti-tumor activity was determined with the CellTiter-Blue® Cell Viability Assay, Promega, Mannheim, Germany. The 50% Inhibitory (IC50) concentrations were determined. The results are the average of duplicate assays. Paclitaxel was included as a reference compound to confirm the integrity of the assays. See S1 Appendix for further details.
# (§2) “Cell lines were routinely passaged once or twice weekly and maintained in culture for up to 20 passages. Cells were grown at 37°C in a humidified atmosphere with 5% CO2 in RPMI 1640 medium (25 mM HEPES, with L-glutamine, #FG1385, Biochrom, Berlin, Germany) supplemented with 10% (v/v) fetal calf serum (Sigma, Taufkirchen, Germany) and 0.1 mg/mL gentamicin (Life Technologies, Karlsruhe, Germany).”
# OVXF OVCAR-8 = assay: as above; type: cell-based, human
# Description: as §1, §2
# [1] = LXFS DMS273, 1% FCS, study P495C
# [2] = LXFS DMS273, 10% FCS, study P495A
# [3] = OVXF OVCAR-8, 1% FCS, study P495C
# [4] = OVXF OVCAR-8, 10% FCS, study P495A
# [5] = OVXF OVCAR-8, 10% FCS, study P495B
smiles,measurement,setting,value
"CC(COc1ccccc1)N(CCCl)Cc1ccccc1 (centres unmarked) [PBZ, phenoxybenzamine]",IC50,"LXFS DMS 273; Homo sapiens, LXFS DMS 273 Small-cell lung, 1% FCS",99.8 µM
same,"Test/Control (%) at Drug Concentration [uM] 1,0E+00",LXFS DMS 273; [1],104%
same,"Test/Control (%) at Drug Concentration [uM] 1,0E+01",LXFS DMS 273; [1],91%
same,"Test/Control (%) at Drug Concentration [uM] 1,0E+02",LXFS DMS 273; [1],49%
same,"Test/Control (%) at Drug Concentration [uM] 3,2E+00",LXFS DMS 273; [1],101%
same,"Test/Control (%) at Drug Concentration [uM] 3,2E+01",LXFS DMS 273; [1],100%
same,"Test/Control (%) at Drug Concentration [uM] 1,0E+00",LXFS DMS 273; [2],76%
same,"Test/Control (%) at Drug Concentration [uM] 1,0E+01",LXFS DMS 273; [2],82%
same,"Test/Control (%) at Drug Concentration [uM] 1,0E+02",LXFS DMS 273; [2],105%
same,"Test/Control (%) at Drug Concentration [uM] 1,0E-01",LXFS DMS 273; [2],81%
same,"Test/Control (%) at Drug Concentration [uM] 1,0E-02",LXFS DMS 273; [2],75%
same,"Test/Control (%) at Drug Concentration [uM] 3,2E+00",LXFS DMS 273; [2],87%
same,"Test/Control (%) at Drug Concentration [uM] 3,2E+01",LXFS DMS 273; [2],100%
same,"Test/Control (%) at Drug Concentration [uM] 3,2E-01",LXFS DMS 273; [2],80%
same,"Test/Control (%) at Drug Concentration [uM] 3,2E-02",LXFS DMS 273; [2],74%
same,"Test/Control (%) at Drug Concentration [uM] 3,2E-03",LXFS DMS 273; [2],83%
same,Percent cell growth in Oncotest screen with 10% FCS (72 hr incubation),"OVXF OVCAR-8; 10 μM phenoxybenzamine, OVCAR-8",90%
same,IC50,"OVXF OVCAR-8; Homo sapiens, OVXF OVCAR-8 Ovarian, 1% FCS",31.9 µM
same,"Test/Control (%) at Drug Concentration [uM] 1,0E+00",OVXF OVCAR-8; [3],102%
same,"Test/Control (%) at Drug Concentration [uM] 1,0E+01",OVXF OVCAR-8; [3],100%
same,"Test/Control (%) at Drug Concentration [uM] 1,0E+02",OVXF OVCAR-8; [3],22%
same,"Test/Control (%) at Drug Concentration [uM] 3,2E+00",OVXF OVCAR-8; [3],104%
same,"Test/Control (%) at Drug Concentration [uM] 3,2E+01",OVXF OVCAR-8; [3],61%
same,"Test/Control (%) at Drug Concentration [uM] 1,0E+00",OVXF OVCAR-8; [4],84%
same,"Test/Control (%) at Drug Concentration [uM] 1,0E+01",OVXF OVCAR-8; [4],90%
same,"Test/Control (%) at Drug Concentration [uM] 1,0E+02",OVXF OVCAR-8; [4],67%
same,"Test/Control (%) at Drug Concentration [uM] 1,0E-01",OVXF OVCAR-8; [4],85%
same,"Test/Control (%) at Drug Concentration [uM] 1,0E-02",OVXF OVCAR-8; [4],90%
same,"Test/Control (%) at Drug Concentration [uM] 3,2E+00",OVXF OVCAR-8; [4],92%
same,"Test/Control (%) at Drug Concentration [uM] 3,2E+01",OVXF OVCAR-8; [4],96%
same,"Test/Control (%) at Drug Concentration [uM] 3,2E-01",OVXF OVCAR-8; [4],86%
same,"Test/Control (%) at Drug Concentration [uM] 3,2E-02",OVXF OVCAR-8; [4],86%
same,"Test/Control (%) at Drug Concentration [uM] 3,2E-03",OVXF OVCAR-8; [4],84%
same,"Test/Control (%) at Drug Concentration [uM] 1,0E+00",OVXF OVCAR-8; [5],89%
same,"Test/Control (%) at Drug Concentration [uM] 1,0E+01",OVXF OVCAR-8; [5],82%
same,"Test/Control (%) at Drug Concentration [uM] 1,0E+02",OVXF OVCAR-8; [5],32%
same,"Test/Control (%) at Drug Concentration [uM] 1,0E-01",OVXF OVCAR-8; [5],86%
same,"Test/Control (%) at Drug Concentration [uM] 1,0E-02",OVXF OVCAR-8; [5],90%
same,"Test/Control (%) at Drug Concentration [uM] 1,0E-03",OVXF OVCAR-8; [5],92%
same,"Test/Control (%) at Drug Concentration [uM] 3,2E+00",OVXF OVCAR-8; [5],84%
same,"Test/Control (%) at Drug Concentration [uM] 3,2E+01",OVXF OVCAR-8; [5],74%
